Where a name gives a salt, the structure may show the parent alone.
Target: T1, purified human HDAC6 (Homo sapiens, UniProt Q9UBN7)
T1 construct: purchased BPS Bioscience 5006
T1 sequence (Q9UBN7 1-1215): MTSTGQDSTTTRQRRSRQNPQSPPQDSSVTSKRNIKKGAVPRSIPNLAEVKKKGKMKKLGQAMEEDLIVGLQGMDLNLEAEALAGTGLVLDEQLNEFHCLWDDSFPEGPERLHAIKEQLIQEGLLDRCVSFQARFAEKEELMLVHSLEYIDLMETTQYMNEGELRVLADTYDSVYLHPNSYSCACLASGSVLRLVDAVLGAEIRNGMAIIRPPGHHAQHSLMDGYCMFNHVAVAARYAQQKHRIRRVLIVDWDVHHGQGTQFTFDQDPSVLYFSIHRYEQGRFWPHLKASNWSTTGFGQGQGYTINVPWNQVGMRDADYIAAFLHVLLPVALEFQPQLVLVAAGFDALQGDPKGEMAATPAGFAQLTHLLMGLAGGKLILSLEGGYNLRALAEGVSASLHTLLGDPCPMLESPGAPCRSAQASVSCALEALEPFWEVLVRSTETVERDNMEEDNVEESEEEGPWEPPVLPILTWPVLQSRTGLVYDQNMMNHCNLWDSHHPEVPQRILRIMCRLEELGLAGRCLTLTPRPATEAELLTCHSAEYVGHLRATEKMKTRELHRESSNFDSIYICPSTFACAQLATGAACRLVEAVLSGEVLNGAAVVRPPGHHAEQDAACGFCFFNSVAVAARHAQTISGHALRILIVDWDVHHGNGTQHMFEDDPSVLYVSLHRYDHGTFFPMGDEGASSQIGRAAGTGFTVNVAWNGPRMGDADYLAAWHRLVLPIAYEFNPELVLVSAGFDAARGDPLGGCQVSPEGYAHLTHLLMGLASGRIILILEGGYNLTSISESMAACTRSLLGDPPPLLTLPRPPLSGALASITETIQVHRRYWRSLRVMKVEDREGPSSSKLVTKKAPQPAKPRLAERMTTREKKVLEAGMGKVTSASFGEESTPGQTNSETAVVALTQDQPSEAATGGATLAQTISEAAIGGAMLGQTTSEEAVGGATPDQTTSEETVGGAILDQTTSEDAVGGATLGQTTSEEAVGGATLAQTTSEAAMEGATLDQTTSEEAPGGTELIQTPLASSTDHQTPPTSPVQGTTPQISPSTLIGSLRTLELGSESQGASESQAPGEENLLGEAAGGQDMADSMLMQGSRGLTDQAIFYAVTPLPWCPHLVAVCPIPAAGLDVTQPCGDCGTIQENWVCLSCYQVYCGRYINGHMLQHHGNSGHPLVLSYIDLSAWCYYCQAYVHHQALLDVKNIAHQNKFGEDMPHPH
Assay: HDAC6 Enzyme Assay
Format: biochemical
Conditions: HDAC6 inhibition at a compound concentration of 0.412 μM; read-out: Percent Inhibition at 0.412 μM
Description: To measure the inhibition of HDAC6 activity, purified human HDAC6 (BPS Bioscience; Cat. No. 5006) is incubated with substrate Ac-Arg-Gly-Lys(Ac)-AMC peptide (Bachem Biosciences; Cat. No. I-1925) for 1 hour at 30° C. in the presence of test compounds or vehicle DMSO control. The reaction is stopped with the HDAC inhibitor trichostatin A (Sigma; Cat. No. T8552) and the amount of Arg-Gly-Lys-AMC generated is quantitated by digestion with trypsin (Sigma; Cat. No. T1426) and subsequent measurement of the amount of AMC released using a fluorescent plate reader (Pherastar; BMG Technologies) set at Ex 340 nm and Em 460 nm. Concentration response curves are generated by calculating the fluorescence increase in test compound-treated samples relative to DMSO-treated controls, and enzyme inhibition (IC50) values are determined from those curves.

SMILES | inhibition at 0.412 µM [%]
O=C(NO)c1ccc2c(c1)CCCC2NC(=O)C1(c2ccccc2)CCCC1 (centres unmarked) [Compound I-46, N-hydroxy-5-{[(1-phenylcyclopentyl)carbonyl]amino}-5,6,7,8-tetrahydronaphthalene-2-carboxamide] | 22
O=C(NO)c1ccc2c(c1)C1CCC2N1C(=O)Cc1ccccc1 (centres unmarked) [Compound I-211, N-hydroxy-9-(phenylacetyl)-1,2,3,4-tetrahydro-1,4-epiminonaphthalene-6-carboxamide] | 51
Cc1nc2ccccn2c1C(=O)NC1CCc2cc(C(=O)NO)ccc2C1 (centres unmarked) [Compound I-55, N-{6-[(hydroxyamino)carbonyl]-1,2,3,4-tetrahydronaphthalen-2-yl}-2-methylimidazo[1,2-a]pyridine-3-carboxamide] | 78
Cc1oc(S(=O)(=O)N2CCCC2)cc1C(=O)NC1CCCc2cc(C(=O)NO)ccc21 (centres unmarked) [Compound I-22, N-{6-[(hydroxyamino)carbonyl]-1,2,3,4-tetrahydronaphthalen-1-yl}-2-methyl-5-(pyrrolidin-1-ylsulfonyl)-3-furamide] | 28
CN(C)Cc1cc(C(=O)NC2CCc3ccc(C(=O)NO)cc3C2)cc(C(F)(F)F)c1 (centres unmarked) [Compound I-78, 7-{[3-[(dimethylamino)methyl]-5-(trifluoromethyl)benzoyl]amino}-N-hydroxy-5,6,7,8-tetrahydronaphthalene-2-carboxamide] | 88
Cn1cccc1C(=O)N1C2CCC1c1cc(C(=O)NO)ccc12 (centres unmarked) [Compound I-123, N-hydroxy-9-[(1-methyl-1H-pyrrol-2-yl)carbonyl]-1,2,3,4-tetrahydro-1,4-epiminonaphthalene-6-carboxamide] | 90
O=C(NO)c1ccc2c(c1)CCCC2NC(=O)c1cc(-c2ccc(F)cc2)n[nH]1 (centres unmarked) [Compound I-43, 3-(4-fluorophenyl)-N-{6-[(hydroxyamino)carbonyl]-1,2,3,4-tetrahydronaphthalen-1-yl}-1H-pyrazole-5-carboxamide] | 71
O=C(NO)c1ccc2c(c1)C1CCC2N1C(=O)C12CC3CC(CC(C3)C1)C2 (centres unmarked) [Compound I-205, 9-(1-adamantylcarbonyl)-N-hydroxy-1,2,3,4-tetrahydro-1,4-epiminonaphthalene-6-carboxamide] | 17
Cc1cc(C(=O)NC2CCc3cc(C(=O)NO)ccc3C2)c(C)n1Cc1cccs1 (centres unmarked) [Compound I-48, N-{6-[(hydroxyamino)carbonyl]-1,2,3,4-tetrahydronaphthalen-2-yl}-2,5-dimethyl-1-(2-thienylmethyl)-1H-pyrrole-3-carboxamide] | 62
O=C(NO)c1ccc2c(c1)C1CCC2N1C(=O)c1cc2ccccc2s1 (centres unmarked) [Compound I-204, 9-(1-benzothien-2-ylcarbonyl)-N-hydroxy-1,2,3,4-tetrahydro-1,4-epiminonaphthalene-6-carboxamide] | 23
O=C(NO)c1ccc2c(c1)CC(c1ccc(N3CCNCC3)nc1)CC2 (centres unmarked) [Compound I-190, N-hydroxy-7-(6-piperazin-1-ylpyridin-3-yl)-5,6,7,8-tetrahydronaphthalene-2-carboxamide] | 90
CC(C)(Oc1ccccc1Cl)C(=O)NC1CCCc2cc(C(=O)NO)ccc21 (centres unmarked) [Compound I-14, 5-{[2-(2-chlorophenoxy)-2-methylpropanoyl]amino}-N-hydroxy-5,6,7,8-tetrahydronaphthalene-2-carboxamide] | 79
Cn1cc(-c2cc(C(=O)NC3CCc4ccc(C(=O)NO)cc4C3)cc(C(F)(F)F)c2)cn1 (centres unmarked) [Compound I-79, N-hydroxy-7-{[3-(1-methyl-1H-pyrazol-4-yl)-5-(trifluoromethyl)benzoyl]amino}-5,6,7,8-tetrahydronaphthalene-2-carboxamide] | 94
CC1(C(=O)NC2CCc3ccc(C(=O)NO)cc3C2)CCNCC1 (centres unmarked) [Compound I-114, N-{7-[(hydroxyamino)carbonyl]-1,2,3,4-tetrahydronaphthalen-2-yl}-4-methylpiperidine-4-carboxamide] | 82
O=C(NO)c1ccc2c(c1)CC(C1CCNCC1)CC2 (centres unmarked) [Compound I-212, N-hydroxy-7-piperidin-4-yl-5,6,7,8-tetrahydronaphthalene-2-carboxamide. HCl] | 72
O=C(NO)c1ccc2c(c1)CCCC2NC(=O)C(C1CCCCC1)C1CCCCC1 (centres unmarked) [Compound I-13, 5-[(dicyclohexylacetyl)amino]-N-hydroxy-5,6,7,8-tetrahydronaphthalene-2-carboxamide] | 10
O=C(NO)c1ccc2c(c1)CCC[C@@H]2NC(=O)c1cn2cc(Cl)ccc2n1 [Compound I-70, 6-chloro-N-{(1S)-6-[(hydroxyamino)carbonyl]-1,2,3,4-tetrahydronaphthalen-1-yl}imidazo[1,2-a]pyridine-2-carboxamide] | 63
CC1(C(=O)Nc2cc(OC3CCc4cc(C(=O)NO)ccc4C3)ccn2)CCNCC1 (centres unmarked) [Compound I-148, N-[4-({6-[(hydroxyamino)carbonyl]-1,2,3,4-tetrahydronaphthalen-2-yl}oxy)pyridin-2-yl]-4-methylpiperidine-4-carboxamide] | 93

Second part, the molecule after the results:

inhibition at 0.412 µM [%] | SMILES
92 | O=C(NO)c1ccc2c(c1)CC(NS(=O)(=O)c1ccccc1)CC2 (centres unmarked) [Compound I-96, N-hydroxy-7-[(phenylsulfonyl)amino]-5,6,7,8-tetrahydronaphthalene-2-carboxamide]
85 | O=C(NO)c1ccc2c(c1)CC(c1ccccc1C(F)(F)F)CC2 (centres unmarked) [Compound I-185, N-hydroxy-7-[2-(trifluoromethyl)phenyl]-5,6,7,8-tetrahydronaphthalene-2-carboxamide]
80 | O=C(NO)c1ccc2c(c1)CCC(NC(=O)c1csc3ccccc13)C2 (centres unmarked) [Compound I-52, N-{6-[(hydroxyamino)carbonyl]-1,2,3,4-tetrahydronaphthalen-2-yl}-1-benzothiophene-3-carboxamide]
69 | CN(C)Cc1cccc(C2CCc3cc(C(=O)NO)ccc3C2)c1 (centres unmarked) [Compound I-183, 6-{3-[(dimethylamino)methyl]phenyl}-N-hydroxy-5,6,7,8-tetrahydronaphthalene-2-carboxamide]
80 | O=C(NO)c1ccc2c(c1)CCC(c1cccnc1)C2 (centres unmarked) [Compound I-121, N-hydroxy-6-pyridin-3-yl-5,6,7,8-tetrahydronaphthalene-2-carboxamide]
86 | O=C(NO)c1ccc2c(c1)CC(Nc1ccc(Cl)cc1)CC2 (centres unmarked) [Compound I-83, 7-[(4-chlorophenyl)amino]-N-hydroxy-5,6,7,8-tetrahydronaphthalene-2-carboxamide]
80 | O=C(NO)c1ccc2c(c1)CC(NCc1ccc(Cl)cc1)CC2 (centres unmarked) [Compound I-76, 7-[(4-chlorobenzyl)amino]-N-hydroxy-5,6,7,8-tetrahydronaphthalene-2-carboxamide]
75 | Cn1cccc1C(=O)NC1CCc2cc(C(=O)NO)ccc2C1 (centres unmarked) [Compound I-62, N-(6-(hydroxycarbamoyl)-1,2,3,4-tetrahydronaphthalen-2-yl)-1-methyl-1H-pyrrole-2-carboxamide]
92 | O=C(NO)c1ccc2c(c1)CC(OCc1ccc(Cl)cc1)CC2 (centres unmarked) [Compound I-117, 7-[(4-chlorobenzyl)oxy]-N-hydroxy-5,6,7,8-tetrahydronaphthalene-2-carboxamide]
92 | O=C(NO)c1ccc2c(c1)CC(Oc1ccccc1)CC2 (centres unmarked) [Compound I-87, N-hydroxy-7-phenoxy-5,6,7,8-tetrahydronaphthalene-2-carboxamide]
87 | O=C(NO)c1ccc2c(c1)CCC(OCc1ccc(Cl)cc1)C2 (centres unmarked) [Compound I-125, 6-[(4-chlorobenzyl)oxy]-N-hydroxy-5,6,7,8-tetrahydronaphthalene-2-carboxamide]
